Results from patent US20180369230A1, “TARGETED SELECTION OF PATIENTS FOR TREATMENT WITH SPECIFIC CORTISTATIN DERIVATIVES” (President and Fellows of Harvard College, priority 2015, published 2018).
Where two headings read alike, the source gives them in different places.

Key:
Experiment in all cases: Cellular proliferation assay
Format in all cases: cell-based
MM1.S = details: MM
Procedure: (§1) All suspension cells were plated (96-well) in triplicate at 5,000-30,000 cells per well for testing (n=3). Viable cell number was estimated after 3, 7 and 10 days by counting viable cells from one vehicle well, generating a cell dilution series, transferring […] per well in duplicate to a 384-well plate, and performing a linear regression to CellTiter-Glo (Promega) response (SPECTRAmax M3, Molecular Devices). Cells from all wells were also fourfold diluted in media and transferred in duplicate for CellTiter-Glo measurement. On days 3 and 7, an equal volume for all wells was split-back with fresh media and compound, such that the resulting cell density for the vehicle well matched the initial seeding density. For days 7 and 10, estimated cell number represents the split-adjusted theoretical cell number. HCT116 were plated (96-well) in triplicate at 250 cells per well. Cells were incubated in the presence of vehicle, 1 μM paclitaxel, or compound. On day 7, CellTiter-Blue (Promega) response was measured and values were normalized to vehicle (100% growth) and paclitaxel (0% growth). For growth assays with inhibitors, n=3 for each concentration with two independent experiments.

REH = details: pre B-ALL, ETV6-RUNX1
Procedure: as §1

MEG-01 = system: MEG-01
Procedure: as §1

SET-2 = system: SET-2
Procedure: as §1

MV4; 11 = system: MV4; 11
Procedure: as §1

K562 = system: K562
Procedure: as §1

UKE-1 = details: AML/MPN, JAK2V617F
Procedure: as §1

RS4; 11 = details: B-ALL, MLL-AF4
Procedure: as §1

ARH-77 = details: MM/PCL
Procedure: as §1

HEL = system: HEL
Procedure: as §1

ME-1 = ME-1 (CBFB-MYH11); 10-day treatment; read-out: G150 after 10 days of treatment
Procedure: as §1

HCT116 = details: Colorectal, β-catenin
Procedure: as §1

[1] = system: megakaryocytic cell lines; details: read-out: 50% maximal growth inhibitory concentrations (GI50s); 5 out of 5 megakaryocytic cell lines tested
Procedure: as §1

GRANTA 519 = details: Mantle Cell Lymphoma
Procedure: as §1

JeKo-1 = details: Mantle Cell Lymphoma
Procedure: as §1

CMK-86 = system: CMK-86
Procedure: as §1

leukemia cell lines = details: K562 and HEL compared to MEG-01 and SET-2 (BCR-Abl or JAK2V617F)
Procedure: as §1

TF-1 = system: TF-1
Procedure: as §1

HL-60 = details: AML/APL
Procedure: as §1

OCI-LY1 = details: DLBCL
Procedure: as §1

SKNO-1 = system: SKNO-1
Procedure: as §1

NB4 = details: AML/APL, PML-RARA
Procedure: as §1

MOLM-14 = system: MOLM-14
Procedure: as §1

Jurkat = details: T-ALL
Procedure: as §1

MKPL-1 = MKPL-1 (RBM6-CSF1R), adult non-DS-AMKL; 10-day treatment; read-out: G150 after 10 days of treatment
Procedure: as §1

Work on Cortistatin A yielded a GI50 (MM1.S) of 5 nM, a GI50 (REH) of 1 nM and an IC50 (MEG-01; MEG-01 (BCR-AB1, GAGA1s), adult non-DS-AMKL, 10-day treatment, read-out: G150 after 10 days of treatment) of 9 nM. For the same substance, the GI50 (MEG-01; MEG-01, CML/AMkL, BCR-ABL, GATA1s) was 9 nM, the IC50 (SET-2; SET-2 (JAK2V617F), 10-day treatment, read-out: G150 after 10 days of treatment) was 4 nM and the GI50 (SET-2; SET-2, AMkL/MPN, JAK2V617F) was 4 nM. For the same substance, the “proliferation, theoretical cell number over time” value (SET-2; SET-2, FIG. 4) was “inhibits the proliferation”, the IC50 (MV4; 11; 11 (MLL-AF4), 10-day treatment, read-out: G150 after 10 days of treatment) was 6 nM and the GI50 (MV4; 11; 11, AML, MLL-AF4) was 6 nM. It also gave an IC50 (K562; K562 (BCR-Abl), erythroleukemia, 10-day treatment, read-out: G150 after 10 days of treatment) greater than 1000 nM, a GI50 (K562; K562, CML/Erythroleukemia, BCR-ABL) greater than 1000 nM and a GI50 (UKE-1) of 7 nM. It also gave a GI50 (RS4; 11) of 3 nM, a GI50 (ARH-77) of 16 nM and an IC50 (HEL; HEL (JAK2V617F), erythroleukemia, 10-day treatment, read-out: G150 after 10 days of treatment) greater than 1000 nM. The GI50 (HEL; HEL, AML/Erythroleukemia, JAK2V617F) was greater than 1000 nM, the IC50 (ME-1) was 1 nM and the GI50 (HCT116) was greater than 1000 nM. It also gave an IC50 [1] of less than 10 nM, a GI50 (GRANTA 519) of 400 nM and a GI50 (JeKo-1) of less than 1 nM. The IC50 (CMK-86; CMK-86 (GATA1s), pediatric DS-AMKL, 10-day treatment, read-out: G150 after 10 days of treatment) was 8 nM, the GI50 (CMK-86; CMK-86, AMkL, GATA1s) was 8 nM and the “difference in sensitivity, megakaryocytic vs erythroleukemia cell lines containing the same mutations” value (leukemia cell lines) was “more than 100 fold”. The IC50 (TF-1; TF-1 (EpoR), erythroleukemia, 10-day treatment, read-out: G150 after 10 days of treatment) was 350 nM, the GI50 (TF-1; TF-1, AML/Erythroleukemia, EpoR) was 350 nM and the GI50 (HL-60) was 7 nM. For the same substance, the GI50 (OCI-LY1) was 37 nM, the IC50 (SKNO-1; SKNO-1 (RUNX1-RUNX1T1), 10-day treatment, read-out: G150 after 10 days of treatment) was 1 nM and the GI50 (SKNO-1; SKNO-1, RUNX1-RUNX1T1) was 1 nM. For the same substance, the GI50 (NB4) was greater than 1000 nM, the GI50 (MOLM-14; MOLM-14 (MLL-AF9), 10-day treatment, read-out: G150 after 10 days of treatment) was 5 nM and the GI50 (MOLM-14; MOLM-14, AML, MLL-AF9, read-out: GI50) was 5 nM. It also gave a GI50 (Jurkat) of 155 nM and an IC50 (MKPL-1) of 1 nM.
